Assay results reported in PMC12845239, “Development of Novel Proline- and Pipecolic Acid-Based Allosteric Inhibitors of Dengue and Zika Virus NS2B/NS3 Protease” (Pharmaceuticals, 2025).
Like-named read-outs stand apart in the source and are kept apart here.

What was measured:
DENV NS2B/NS3 = biological target: T1, DENV NS2B/NS3 (Dengue virus type 2, UniProt P29990); test: biochemical; details: for inhibition at 50 µM: read-out: DENV % inhibition at 50 µM; for inhibition at 50 µM / DENV % inhibition at 50 µM: 50 µM inhibitor, DENV-2 protease 100 nM, substrate 50 µM
T1 construct: the hydrophilic 40-residue core domain of NS2B (NS2B(H)-NS3pro); The used DENV protease construct contains the protease domain of NS3
T1 sequence (P29990 1398-1437): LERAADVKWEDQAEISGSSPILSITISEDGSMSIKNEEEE
T1 sequence (P29990 1476-1653): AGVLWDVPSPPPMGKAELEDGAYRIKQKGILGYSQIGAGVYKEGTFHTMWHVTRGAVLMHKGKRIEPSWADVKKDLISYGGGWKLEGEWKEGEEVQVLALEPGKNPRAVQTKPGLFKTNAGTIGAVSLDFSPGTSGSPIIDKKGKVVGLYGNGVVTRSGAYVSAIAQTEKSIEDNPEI

ZIKV NS2B/NS3 = ZIKV NS2B/NS3 (Zika virus, UniProt A0A024B7W1, R1467A/R1531G); test: ZIKV protease relative inhibition assay (fluorometric, Bz-Nle-Lys-Arg-Arg-AMC 10 µM); assay type: biochemical; details: 50 µM inhibitor, ZIKV protease 10 nM, substrate 10 µM
DENV-2 NS2B-NS3 protease = DENV-2 NS2B-NS3 protease (Dengue virus type 2, UniProt P29990); test: DENV2 Reporter Gene Assay (DENV2proHeLa); assay type: cell-based; details: for inhibition at 25 µM: M-HeLa, read-out: DENV2 proHeLa % inhibition at 25 µM; for EC50: read-out: DENV2 proHeLa EC50
Sequence of DENV-2 NS2B-NS3 protease (P29990 1346-1653): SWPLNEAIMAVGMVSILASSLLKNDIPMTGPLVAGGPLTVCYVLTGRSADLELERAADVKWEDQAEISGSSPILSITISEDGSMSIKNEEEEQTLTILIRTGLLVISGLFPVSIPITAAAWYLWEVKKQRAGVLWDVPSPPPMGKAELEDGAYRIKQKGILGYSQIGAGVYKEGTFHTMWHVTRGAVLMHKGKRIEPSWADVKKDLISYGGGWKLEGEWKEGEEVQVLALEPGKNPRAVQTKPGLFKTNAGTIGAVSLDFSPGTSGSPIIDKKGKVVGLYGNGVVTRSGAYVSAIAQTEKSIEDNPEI
Experimental: The DENV2proHeLa assay was performed as published previously. Stable cells were seeded into 96-well plates with a density of 2 × 10^4 cells per well and treated immediately with inhibitors of the DENV protease in a final volume of 100 μL. After incubation for 24 h at 37 °C, the medium was removed, and cells were lysed by adding 25 μL of lysis buffer (Promega) for 15 min at room temperature. Luciferase activity was recorded using a FLUOstar omega plate reader (BMG Labtech, Ortenberg, Germany) with injections of 100 μL per well of coelenterazine (2.75 μM in PBS). Luminescence was recorded for 5 s. Each concentration was assayed in triplicate. The percentage of inhibition was calculated in relation to the untreated control. For EC50 calculations, data were fitted and calculated with Prism 6.1 (GraphPad Software, Inc., San Diego, CA, USA) using a 4-parameter nonlinear dose-response curve with background subtraction (wells without cells).

serine protease of DENV = tested on: serine protease of DENV; design: method as in PMID 31769670; details: cited from earlier work
serine protease of ZIKV = details: cited from earlier work
[1] = 25 µM, HeLa reporter cells, 24 h

## O=C(Nc1nc2cc(O)c(O)cc2s1)[C@@H]1CCCN1S(=O)(=O)c1ccccc1C(F)(F)F [Compound 2]
DENV NS2B/NS3
  IC50: 5.1 ± 0.29 µM
ZIKV NS2B/NS3
  ZIKV % inhibition at 50 µM: 49.6%
DENV-2 NS2B-NS3 protease; [1]
  inhibition at 25 µM: 27.7%

## O=C(Nc1nc2cc(O)c(O)cc2s1)[C@@H]1CCCN1S(=O)(=O)c1cccc(C(F)(F)F)c1 [Compound 3]
DENV NS2B/NS3
  IC50: 5 ± 0.29 µM
ZIKV NS2B/NS3
  ZIKV % inhibition at 50 µM: 36.6%
DENV-2 NS2B-NS3 protease; [1]
  inhibition at 25 µM: 46.6%

## O=C(Nc1nc2cc(O)c(O)cc2s1)[C@@H]1CCCN1S(=O)(=O)c1ccc(C(F)(F)F)cc1 [Compound 4]
DENV NS2B/NS3
  IC50: 5.6 ± 0.39 µM
ZIKV NS2B/NS3
  ZIKV % inhibition at 50 µM: 35.4%
DENV-2 NS2B-NS3 protease; [1]
  inhibition at 25 µM: 19.5%

## O=C(Nc1nc2cc(O)c(O)cc2s1)[C@@H]1CCCN1S(=O)(=O)c1ccccc1[N+](=O)[O-] [Compound 5, (S)-N-(5,6-Dihydroxybenzo[d]thiazol-2-yl)-1-((2-nitrophenyl)sulfonyl)pyrrolidine-2-carboxamide]
DENV NS2B/NS3
  IC50: 8 ± 0.52 µM
DENV-2 NS2B-NS3 protease; [1]
  inhibition at 25 µM: 18.5%

## O=C(Nc1nc2cc(O)c(O)cc2s1)[C@@H]1CCCN1S(=O)(=O)c1cccc([N+](=O)[O-])c1 [Compound 6, (S)-N-(5,6-Dihydroxybenzo[d]thiazol-2-yl)-1-((3-nitrophenyl)sulfonyl)pyrrolidine-2-carboxamide]
DENV NS2B/NS3
  IC50: 6.4 ± 0.52 µM
DENV-2 NS2B-NS3 protease; [1]
  inhibition at 25 µM: 23.5%

## O=C(Nc1nc2cc(O)c(O)cc2s1)[C@@H]1CCCN1S(=O)(=O)c1ccc([N+](=O)[O-])cc1 [Compound 7, (S)-N-(5,6-Dihydroxybenzo[d]thiazol-2-yl)-1-((4-nitrophenyl)sulfonyl)pyrrolidine-2-carboxamide, reference compound]
DENV NS2B/NS3
  IC50: 5 ± 0.37 µM
Serine protease of DENV
  IC50: 8.58 µM
DENV-2 NS2B-NS3 protease; [1]
  inhibition at 25 µM: 43%
Serine protease of ZIKV
  IC50: 930 nM

## O=C(Nc1nc2cc(O)c(O)cc2s1)[C@H]1CCCN1S(=O)(=O)c1ccccc1[N+](=O)[O-] [Compound 14, (R)-N-(5,6-Dihydroxybenzo[d]thiazol-2-yl)-1-((2-nitrophenyl)sulfonyl)pyrrolidine-2-carboxamide]
DENV NS2B/NS3
  inhibition at 50 µM: 13.5%
ZIKV NS2B/NS3
  ZIKV % inhibition at 50 µM: 68.5%
DENV-2 NS2B-NS3 protease
  inhibition at 25 µM: 17.7%

## O=C(Nc1nc2cc(O)c(O)cc2s1)[C@H]1CCCN1S(=O)(=O)c1cccc([N+](=O)[O-])c1 [Compound 15, (R)-N-(5,6-Dihydroxybenzo[d]thiazol-2-yl)-1-((3-nitrophenyl)sulfonyl)pyrrolidine-2-carboxamide]
DENV NS2B/NS3
  inhibition at 50 µM: 16.9%
ZIKV NS2B/NS3
  ZIKV % inhibition at 50 µM: 54.6%
DENV-2 NS2B-NS3 protease; [1]
  inhibition at 25 µM: 26.9%

## O=C(Nc1nc2cc(O)c(O)cc2s1)[C@H]1CCCN1S(=O)(=O)c1ccc([N+](=O)[O-])cc1 [Compound 16, (R)-N-(5,6-Dihydroxybenzo[d]thiazol-2-yl)-1-((4-nitrophenyl)sulfonyl)pyrrolidine-2-carboxamide]
DENV NS2B/NS3
  inhibition at 50 µM: 40.7%
DENV-2 NS2B-NS3 protease; [1]
  inhibition at 25 µM: 51.3%

## O=C(Nc1nc2cc(O)c(O)cc2s1)[C@@H]1CCCCN1S(=O)(=O)c1ccccc1C(F)(F)F [Compound 17, (S)-N-(5,6-Dihydroxybenzo[d]thiazol-2-yl)-1-((2-(trifluoromethyl)phenyl)sulfonyl)piperidine-2-carboxamide]
DENV NS2B/NS3
  inhibition at 50 µM: 58.7%
ZIKV NS2B/NS3
  ZIKV % inhibition at 50 µM: 57.2%
DENV-2 NS2B-NS3 protease; [1]
  inhibition at 25 µM: 41.7%

## O=C(Nc1nc2cc(O)c(O)cc2s1)[C@@H]1CCCCN1S(=O)(=O)c1cccc(C(F)(F)F)c1 [Compound 18, (S)-N-(5,6-Dihydroxybenzo[d]thiazol-2-yl)-1-((3-(trifluoromethyl)phenyl)sulfonyl)piperidine-2-carboxamide]
DENV NS2B/NS3
  inhibition at 50 µM: 55.9%
ZIKV NS2B/NS3
  ZIKV % inhibition at 50 µM: 42.2%
DENV-2 NS2B-NS3 protease; HeLa reporter cells, 24 h
  EC50: 12.8 ± 0.99 µM

## O=C(Nc1nc2cc(O)c(O)cc2s1)[C@@H]1CCCCN1S(=O)(=O)c1ccc(C(F)(F)F)cc1 [Compound 19]
DENV NS2B/NS3
  inhibition at 50 µM: 51.3%
DENV-2 NS2B-NS3 protease; HeLa reporter cells, 24 h
  EC50: 20.3 ± 1.5 µM

## O=C(Nc1nc2cc(O)c(O)cc2s1)[C@@H]1CCCCN1S(=O)(=O)c1ccccc1[N+](=O)[O-] [Compound 20, (S)-N-(5,6-Dihydroxybenzo[d]thiazol-2-yl)-1-((2-nitrophenyl)sulfonyl)piperidine-2-carboxamide]
DENV NS2B/NS3
  inhibition at 50 µM: 29.6%
DENV-2 NS2B-NS3 protease; [1]
  inhibition at 25 µM: 31.4%

## O=C(Nc1nc2cc(O)c(O)cc2s1)[C@@H]1CCCCN1S(=O)(=O)c1cccc([N+](=O)[O-])c1 [Compound 21, (S)-N-(5,6-Dihydroxybenzo[d]thiazol-2-yl)-1-((3-nitrophenyl)sulfonyl)piperidine-2-carboxamide]
DENV NS2B/NS3
  DENV % inhibition at 50 µM: n.i.
DENV-2 NS2B-NS3 protease; HeLa reporter cells, 24 h
  EC50: 22 ± 1.5 µM

## O=C(Nc1nc2cc(O)c(O)cc2s1)[C@@H]1CCCCN1S(=O)(=O)c1ccc([N+](=O)[O-])cc1 [Compound 22, (S)-N-(5,6-Dihydroxybenzo[d]thiazol-2-yl)-1-((4-nitrophenyl)sulfonyl)piperidine-2-carboxamide]
DENV NS2B/NS3
  inhibition at 50 µM: 59.8%
DENV-2 NS2B-NS3 protease; HeLa reporter cells, 24 h
  EC50: 13.4 ± 1.2 µM

## O=C(Nc1nc2cc(O)c(O)cc2s1)[C@H]1CCCCN1S(=O)(=O)c1ccccc1C(F)(F)F [Compound 23, (R)-N-(5,6-Dihydroxybenzo[d]thiazol-2-yl)-1-((2-(trifluoromethyl)phenyl)sulfonyl)piperidine-2-carboxamide]
DENV NS2B/NS3
  IC50: 41.8 ± 2.2 µM
ZIKV NS2B/NS3
  ZIKV % inhibition at 50 µM: 36.2%
DENV-2 NS2B-NS3 protease; [1]
  inhibition at 25 µM: 18.5%

## O=C(Nc1nc2cc(O)c(O)cc2s1)[C@H]1CCCCN1S(=O)(=O)c1cccc(C(F)(F)F)c1 [Compound 24, (R)-N-(5,6-Dihydroxybenzo[d]thiazol-2-yl)-1-((3-(trifluoromethyl)phenyl)sulfonyl)piperidine-2-carboxamide]
DENV NS2B/NS3
  IC50: 30.8 ± 1.7 µM
ZIKV NS2B/NS3
  ZIKV % inhibition at 50 µM: 34.5%
DENV-2 NS2B-NS3 protease; HeLa reporter cells, 24 h
  EC50: 5.2 ± 0.43 µM

## O=C(Nc1nc2cc(O)c(O)cc2s1)[C@H]1CCCCN1S(=O)(=O)c1ccc(C(F)(F)F)cc1 [Compound 25]
DENV NS2B/NS3
  IC50: 22.3 ± 1.4 µM
ZIKV NS2B/NS3
  ZIKV % inhibition at 50 µM: 48.4%
DENV-2 NS2B-NS3 protease; [1]
  inhibition at 25 µM: 38%

## O=C(Nc1nc2cc(O)c(O)cc2s1)[C@H]1CCCCN1S(=O)(=O)c1ccccc1[N+](=O)[O-] [Compound 26, (R)-N-(5,6-Dihydroxybenzo[d]thiazol-2-yl)-1-((2-nitrophenyl)sulfonyl)piperidine-2-carboxamide]
DENV NS2B/NS3
  IC50: 38.9 ± 4 µM
DENV-2 NS2B-NS3 protease; [1]
  inhibition at 25 µM: 9.5%

## O=C(Nc1nc2cc(O)c(O)cc2s1)[C@H]1CCCCN1S(=O)(=O)c1cccc([N+](=O)[O-])c1 [Compound 27, (R)-N-(5,6-Dihydroxybenzo[d]thiazol-2-yl)-1-((3-nitrophenyl)sulfonyl)piperidine-2-carboxamide]
DENV NS2B/NS3
  IC50: 35 ± 2.1 µM
DENV-2 NS2B-NS3 protease; HeLa reporter cells, 24 h
  EC50: 5.1 ± 0.53 µM

## O=C(Nc1nc2cc(O)c(O)cc2s1)[C@H]1CCCCN1S(=O)(=O)c1ccc([N+](=O)[O-])cc1 [Compound 28, (R)-N-(5,6-Dihydroxybenzo[d]thiazol-2-yl)-1-((4-nitrophenyl)sulfonyl)piperidine-2-carboxamide]
DENV NS2B/NS3
  IC50: 27 ± 1.6 µM
DENV-2 NS2B-NS3 protease; HeLa reporter cells, 24 h
  EC50: 9 ± 0.4 µM

## (S)-N-(5,6-Dihydroxybenzo[d]thiazol-2-yl)-1-(2-(trifluoromethyl)benzoyl)pyrrolidine-2-carboxamide [Compound 8]
DENV NS2B/NS3
  DENV % inhibition at 50 µM: n.i.
ZIKV NS2B/NS3
  ZIKV % inhibition at 50 µM: n.i.
DENV-2 NS2B-NS3 protease; [1]
  DENV2 proHeLa % inhibition at 25 µM: n.i.

## (S)-N-(5,6-Dihydroxybenzo[d]thiazol-2-yl)-1-(3-(trifluoromethyl)benzoyl)pyrrolidine-2-carboxamide [Compound 9]
DENV NS2B/NS3
  DENV % inhibition at 50 µM: 55.9%
ZIKV NS2B/NS3
  ZIKV % inhibition at 50 µM: 56.5%
DENV-2 NS2B-NS3 protease; [1]
  DENV2 proHeLa % inhibition at 25 µM: 42.2%

## (S)-N-(5,6-Dihydroxybenzo[d]thiazol-2-yl)-1-(4(trifluoromethyl)benzoyl)pyrrolidine-2-carboxamide [Compound 10]
DENV NS2B/NS3
  DENV % inhibition at 50 µM: 16.8%
ZIKV NS2B/NS3
  ZIKV % inhibition at 50 µM: 39.2%
DENV-2 NS2B-NS3 protease; [1]
  DENV2 proHeLa % inhibition at 25 µM: 15.4%
